Source: patent publication US8222278B2, “Treatment of attention-deficit/hyperactivity disorder” (Abbott Laboratories, priority 2008, dated 2012)

How the values were obtained:
adults with ADHD [1] = test: Study A: treatment-emergent adverse events (safety dataset)
Experimental: (§1) During each visit, blood pressure, heart rate, weight, medication accountability and tolerability, and adverse effects were assessed.
(§2) The safety dataset consisted of all subjects who took at least one dose of study drug. The reasons for discontinuation and the treatment-emergent adverse events were summarized by the treatment under which the discontinuation or event was reported.
(§3) Treatment-emergent adverse events were those that began or worsened following the first dose of study drug in Period 1. Adverse event monitoring was conducted at each study visit and until 30 days following discontinuation of study drug. Other routine safety assessments included vital signs, electrocardiograms, physical examinations, brief neurological examinations and laboratory tests.

adults with ADHD [2] = settings: human, in vivo, 4 weeks
Experimental: as §1, §2, §3

## Clc1cc(N2C[C@@H]3CN[C@@H]3C2)cnc1Cl [ABT-894, 3-(5,6-Dichloro-pyridin-3-yl)-1S,5S-3,6-diazabicyclo[3.2.0]heptane]
Adults with ADHD [1]; ABT-894 4 mg BID, N = 46
  Lethargy, % of subjects: (0) %
  Lethargy, number of subjects: 0 subjects
  Muscle Strain, % of subjects: (0) %
  Muscle Strain, number of subjects: 0 subjects
  Nasal congestion, % of subjects: (6.5) %
  Nasal congestion, number of subjects: 3 subjects
  Nausea, % of subjects: (8.7) %
  Nausea, number of subjects: 4 subjects
  Parathesia, % of subjects: (0) %
  Parathesia, number of subjects: 0 subjects
  Sleep disturbances, % of subjects: (4.3) %
  Sleep disturbances, number of subjects: 2 subjects
  Somnolence, % of subjects: (4.3) %
  Somnolence, number of subjects: 2 subjects
  Upper RTI, % of subjects: (0) %
  Upper RTI, number of subjects: 0 subjects
  Vomiting, % of subjects: (2.2) %
  Vomiting, number of subjects: 1 subjects
Adults with ADHD [1]; ABT-894 4 mg QD, N = 40
  Any Adverse Event, % of subjects: (65.0) %
  Any Adverse Event, number of subjects: 26 subjects
  Decreased appetite, % of subjects: (5.0) %
  Decreased appetite, number of subjects: 2 subjects
  Diarrhea, % of subjects: (7.5) %
  Diarrhea, number of subjects: 3 subjects
  Dizziness, % of subjects: (10.0) %
  Dizziness, number of subjects: 4 subjects
  Dry mouth, % of subjects: (0) %
  Dry mouth, number of subjects: 0 subjects
  Fatigue, % of subjects: (5.0) %
  Fatigue, number of subjects: 2 subjects
  Feeling hot and cold, % of subjects: (0) %
  Feeling hot and cold, number of subjects: 0 subjects
  Feeling jittery, % of subjects: (0) %
  Feeling jittery, number of subjects: 0 subjects
  Headache, % of subjects: (12.5) %
  Headache, number of subjects: 5 subjects
  Lethargy, % of subjects: (2.5) %
  Lethargy, number of subjects: 1 subjects
  Muscle Strain, % of subjects: (0) %
  Muscle Strain, number of subjects: 0 subjects
  Nasal congestion, % of subjects: (0) %
  Nasal congestion, number of subjects: 0 subjects
  Nausea, % of subjects: (22.5) %
  Nausea, number of subjects: 9 subjects
  Parathesia, % of subjects: (0) %
  Parathesia, number of subjects: 0 subjects
  Sleep disturbances, % of subjects: (7.5) %
  Sleep disturbances, number of subjects: 3 subjects
  Somnolence, % of subjects: (0) %
  Somnolence, number of subjects: 0 subjects
  Upper RTI, % of subjects: (7.5) %
  Upper RTI, number of subjects: 3 subjects
  Vomiting, % of subjects: (10.0) %
  Vomiting, number of subjects: 4 subjects
Adults with ADHD [1]; Total ABT-894, N = 174
  Any Adverse Event, number of subjects: 109 subjects
  Decreased appetite, % of subjects: (1.1) %
  Decreased appetite, number of subjects: 2 subjects
  Diarrhea, % of subjects: (3.4) %
  Diarrhea, number of subjects: 6 subjects
  Dizziness, % of subjects: (6.3) %
  Dizziness, number of subjects: 11 subjects
  Dry mouth, % of subjects: (1.7) %
  Dry mouth, number of subjects: 3 subjects
  Fatigue, % of subjects: (5.2) %
  Fatigue, number of subjects: 9 subjects
  Feeling hot and cold, % of subjects: (0) %
  Feeling hot and cold, number of subjects: 0 subjects
  Feeling jittery, % of subjects: (0) %
  Feeling jittery, number of subjects: 0 subjects
  Headache, % of subjects: (10.3) %
  Headache, number of subjects: 18 subjects
  Lethargy, % of subjects: (0.6) %
  Lethargy, number of subjects: 1 subjects
  Muscle Strain, % of subjects: (1.7) %
  Muscle Strain, number of subjects: 3 subjects
  Nasal congestion, % of subjects: (1.7) %
  Nasal congestion, number of subjects: 3 subjects
  Nausea, number of subjects: 21 subjects
  Parathesia, % of subjects: (0) %
  Parathesia, number of subjects: 0 subjects
  Sleep disturbances, % of subjects: (7.5) %
  Sleep disturbances, number of subjects: 13 subjects
  Somnolence, % of subjects: (4.6) %
  Somnolence, number of subjects: 8 subjects
  Upper RTI, % of subjects: (4.0) %
  Upper RTI, number of subjects: 7 subjects
  Vomiting, % of subjects: (3.4) %
  Vomiting, number of subjects: 6 subjects
Adults with ADHD [1]; adults with ADHD, all doses
  Safety and tolerability: generally was safe and well tolerated
Adults with ADHD [2]
  Influenza-like illness, % of subjects: (0) %
  Influenza-like illness, number of subjects: 0 subjects
